Results reported in EP1401467B3, “ALPHA-FETOPROTEIN PEPTIDES AND USES THEREOF” (Albany Medical College, priority 2001, dated 2003).
Entries after “also recorded” stand apart in the source; their conditions may differ. Blank lines part the entries; values can stand above or below the compound they belong to. Square brackets hold non-standard residues; d marks the D form. Peptide text beside a SMILES is read from it. Hyp = O=C(O)[C@@H]1C[C@@H](O)CN1

Tests used:
[1] = test system: E2-stimulated growth of immature mouse uterus; settings: for dose of maximal inhibitory activity on estrogen-stimulated growth of immature mouse uterus: i.p., dose-response
Experimental: (§1) Peptide or vehicle control was injected i.p. into immature female Swiss mice. One hour later 0.5 µg of E2 or vehicle control was injected i.p. into these mice. Twenty-two hours later, uteri were dissected and weighed. Percent inhibition of E2-stimulated growth of uterus by peptide was calculated as described in Materials and Methods. There were five to eight replicate mice per treatment group. (Figure 1a) Peptide dose-response. […] Peptide, SEQ ID NO:2: […], was fractionated using a Waters SW 200 gel-filtration column using phosphate buffered saline pH 7.4 as mobil phase. Fractions which had significant UV absorbance at 230 nm were collected at twenty second intervals. The first fraction (Frac I), the last fraction (Frac III), and the starting material (UnFrac) were all tested in the immature mouse uterine growth assay as described in Figures 1a and 1b. […] (Figure 3a) dose-response. […] (Figure 4a) dose-response. […] There were five to eight replicate mice per treatment group. Estrogen was provided via a slow release pellet implanted subcutaneously. Peptide was given twice a day i.p. at a dose of 1 µg per mouse. Tumor volumes in each mouse were measured at the time of tumor implantation and at 10-day intervals thereafter during survival laparotomies. […] (Figure 6a) dose-response. […] Experimental protocol is described in legend to Figure 5 and Materials and Methods. […] Rabbit uterine cytosol was used as a source of estrogen receptor. All incubations were performed in triplicate, each containing 100 µl of cytosol, 20 µl of 10 nM 6,7-^3Hestradiol (50 Ci/mmol), and 80 µl of test agent at the final concentrations indicated on the abscissa. Details of the assay are described in Materials and Methods. • Concentration of [^3H] E2-complex with receptor in the presence of different concentrations of test agent is expressed as a percentage of the amount of complex formed in the absence of test agent; • Figures 9a and 9b illustrate the effect of AFP-derived peptide on growth of estrogen-receptor-positive MCF-7 and MCF-7/Tam.human breast cancer xenografts. Tumors were implanted as described in Materials and Methods. […] Tumor volumes in each mouse were measured at the time of tumor implantation, again at day 15 after tumor implantation during survival laparotomy and again at day 30 after tumor implantation during necropsy. There was a minimum of 5 mice per group. (Figure 9a) MCF-7 tumors. […] See legend to Figures 9a and 9b for experimental protocol. […] See legend to Figures 9a and 9b for experimental protocol. […] Rabbit uterine cytosol was used as a source of estrogen receptor. All incubations were performed in triplicate, each containing 100 µl of cytosol, 20 µl of 10 nM 6,7-^3H estradiol (50 Ci/mmol), and 80 µl of test agent at the final concentrations indicated on the abscissa. Concentration of [^3H] […] The assay procedure is described in the Materials and Methods.

[2] = Shelf-life / storage studies of lyophilized peptide, read out in the immature mouse uterine growth assay; format: physicochemical; settings: for shelf-life: storage in the lyophilized state at -20°C, activity tested in immature mouse uterine growth assay
Experimental: Peptide or vehicle control was injected i.p. into immature female Swiss mice. One hour later 0.5 µg of E2 or vehicle control was injected i.p. into these mice. Twenty-two hours later, uteri were dissected and weighed. Percent inhibition of E2-stimulated growth of uterus by peptide was calculated as described in Materials and Methods. There were five to eight replicate mice per treatment group. (Figure 1a) Peptide dose-response. […] Peptide, SEQ ID NO:2: […], was fractionated using a Waters SW 200 gel-filtration column using phosphate buffered saline pH 7.4 as mobil phase. Fractions which had significant UV absorbance at 230 nm were collected at twenty second intervals. The first fraction (Frac I), the last fraction (Frac III), and the starting material (UnFrac) were all tested in the immature mouse uterine growth assay as described in Figures 1a and 1b. […] (Figure 3a) dose-response. […] (Figure 4a) dose-response. […] There were five to eight replicate mice per treatment group. Estrogen was provided via a slow release pellet implanted subcutaneously. Peptide was given twice a day i.p. at a dose of 1 µg per mouse. Tumor volumes in each mouse were measured at the time of tumor implantation and at 10-day intervals thereafter during survival laparotomies. […] (Figure 6a) dose-response. […] Experimental protocol is described in legend to Figure 5 and Materials and Methods. […] Rabbit uterine cytosol was used as a source of estrogen receptor. All incubations were performed in triplicate, each containing 100 µl of cytosol, 20 µl of 10 nM 6,7-^3Hestradiol (50 Ci/mmol), and 80 µl of test agent at the final concentrations indicated on the abscissa. Details of the assay are described in Materials and Methods. • Concentration of [^3H] E2-complex with receptor in the presence of different concentrations of test agent is expressed as a percentage of the amount of complex formed in the absence of test agent; • Figures 9a and 9b illustrate the effect of AFP-derived peptide on growth of estrogen-receptor-positive MCF-7 and MCF-7/Tam.human breast cancer xenografts. Tumors were implanted as described in Materials and Methods. […] Tumor volumes in each mouse were measured at the time of tumor implantation, again at day 15 after tumor implantation during survival laparotomy and again at day 30 after tumor implantation during necropsy. There was a minimum of 5 mice per group. (Figure 9a) MCF-7 tumors. […] See legend to Figures 9a and 9b for experimental protocol. […] See legend to Figures 9a and 9b for experimental protocol. […] Rabbit uterine cytosol was used as a source of estrogen receptor. All incubations were performed in triplicate, each containing 100 µl of cytosol, 20 µl of 10 nM 6,7-^3H estradiol (50 Ci/mmol), and 80 µl of test agent at the final concentrations indicated on the abscissa. […]

[3] = test system: MCF-7 human breast cancer xenografts; assay: Human breast cancer xenograft assay, MCF-7; format: in vivo; settings: E2 implant, 30-day observation
Experimental: Peptide or vehicle control was injected i.p. into immature female Swiss mice. One hour later 0.5 µg of E2 or vehicle control was injected i.p. into these mice. Twenty-two hours later, uteri were dissected and weighed. Percent inhibition of E2-stimulated growth of uterus by peptide was calculated as described in Materials and Methods. There were five to eight replicate mice per treatment group. (Figure 1a) Peptide dose-response. […] Peptide, SEQ ID NO:2: […], was fractionated using a Waters SW 200 gel-filtration column using phosphate buffered saline pH 7.4 as mobil phase. Fractions which had significant UV absorbance at 230 nm were collected at twenty second intervals. The first fraction (Frac I), the last fraction (Frac III), and the starting material (UnFrac) were all tested in the immature mouse uterine growth assay as described in Figures 1a and 1b. […] (Figure 3a) dose-response. […] (Figure 4a) dose-response. […] There were five to eight replicate mice per treatment group. Estrogen was provided via a slow release pellet implanted subcutaneously. Peptide was given twice a day i.p. at a dose of 1 µg per mouse. Tumor volumes in each mouse were measured at the time of tumor implantation and at 10-day intervals thereafter during survival laparotomies. […] (Figure 6a) dose-response. […] Experimental protocol is described in legend to Figure 5 and Materials and Methods. […] Rabbit uterine cytosol was used as a source of estrogen receptor. […] E2-complex with receptor in the presence of different concentrations of test agent is expressed as a percentage of the amount of complex formed in the absence of test agent; • Figures 9a and 9b illustrate the effect of AFP-derived peptide on growth of estrogen-receptor-positive MCF-7 and MCF-7/Tam.human breast cancer xenografts. […] Tumor volumes in each mouse were measured at the time of tumor implantation, again at day 15 after tumor implantation during survival laparotomy and again at day 30 after tumor implantation during necropsy. […]

[4] = mouse, in vivo
estrogen receptor = target: T1, estrogen receptor (Oryctolagus cuniculus, UniProt G1SML6); settings: at a concentration of 100 nM; rabbit uterine cytosol
T1 sequence (G1SML6 1-598): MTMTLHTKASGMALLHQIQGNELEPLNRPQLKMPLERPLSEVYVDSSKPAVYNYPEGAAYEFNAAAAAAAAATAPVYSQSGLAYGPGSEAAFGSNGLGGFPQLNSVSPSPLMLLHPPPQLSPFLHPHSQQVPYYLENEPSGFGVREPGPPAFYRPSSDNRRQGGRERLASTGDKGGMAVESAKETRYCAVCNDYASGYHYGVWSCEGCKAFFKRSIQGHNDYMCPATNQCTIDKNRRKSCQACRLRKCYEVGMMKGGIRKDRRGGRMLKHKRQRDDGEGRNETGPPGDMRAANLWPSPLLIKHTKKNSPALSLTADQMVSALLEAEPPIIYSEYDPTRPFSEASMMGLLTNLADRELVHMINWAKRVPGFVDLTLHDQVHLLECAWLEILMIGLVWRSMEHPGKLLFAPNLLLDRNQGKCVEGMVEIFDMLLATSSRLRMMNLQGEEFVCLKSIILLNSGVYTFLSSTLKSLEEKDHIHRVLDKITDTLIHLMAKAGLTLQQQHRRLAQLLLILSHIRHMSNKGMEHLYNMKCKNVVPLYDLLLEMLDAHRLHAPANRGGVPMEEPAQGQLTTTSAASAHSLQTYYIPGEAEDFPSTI
Experimental: as §1

[5] = test system: MCF-7/Tam human breast cancer xenografts; assay: Human breast cancer xenograft assay, tamoxifen-resistant MCF-7 subline; format: in vivo; settings: tamoxifen 50 µg per mouse i.p. once a day; E2 implant; day 30
Experimental: Peptide or vehicle control was injected i.p. into immature female Swiss mice. One hour later 0.5 µg of E2 or vehicle control was injected i.p. into these mice. Twenty-two hours later, uteri were dissected and weighed. Percent inhibition of E2-stimulated growth of uterus by peptide was calculated as described in Materials and Methods. There were five to eight replicate mice per treatment group. (Figure 1a) Peptide dose-response. […] Peptide, SEQ ID NO:2: […], was fractionated using a Waters SW 200 gel-filtration column using phosphate buffered saline pH 7.4 as mobil phase. Fractions which had significant UV absorbance at 230 nm were collected at twenty second intervals. […] Tumor volumes in each mouse were measured at the time of tumor implantation and at 10-day intervals thereafter during survival laparotomies. […] E2-complex with receptor in the presence of different concentrations of test agent is expressed as a percentage of the amount of complex formed in the absence of test agent; • Figures 9a and 9b illustrate the effect of AFP-derived peptide on growth of estrogen-receptor-positive MCF-7 and MCF-7/Tam.human breast cancer xenografts. […] Tumor volumes in each mouse were measured at the time of tumor implantation, again at day 15 after tumor implantation during survival laparotomy and again at day 30 after tumor implantation during necropsy. […]

[6] = test system: MCF-7 human breast cancer xenografts; settings: earlier study (Bennett et al. 1998); cited from earlier work
[7] = test system: T47D human breast cancer xenografts; assay: Human breast cancer xenograft assay, T47D; format: in vivo; settings: tamoxifen
[8] = test system: MDA-MB-231 human breast cancer xenografts; assay: Human breast cancer xenograft assay, MDA-MB-231; format: in vivo; settings: tamoxifen 50 µg per mouse i.p. once a day

biological activity after treatment with 4 M urea ([2]; stored/aged peptide, brief treatment with 4 M urea): restored the optimal biological activity
SMILES: CSCC[C@@H]1NC(=O)[C@H](CCC(=O)O)NC(=O)[C@H](CCC(N)=O)NC(=O)CNC(=O)[C@@H]2CCCN2C(=O)[C@H](CC(N)=O)NC(=O)[C@H](C(C)C)NC(=O)[C@@H]2CCCN2C(=O)[C@H]([C@@H](C)O)NC1=O (cyclo(EMTPVNPGQ))
inhibition of estrogen-stimulated growth of immature mouse uterus ([1]; at the optimal dose of the linear peptides (1 µg)): very active
dose of maximal inhibitory activity on estrogen-stimulated growth of immature mouse uterus [1]: 10 µg per mouse
biological activity after prolonged storage ([2]; after storage of six months): significant, albeit not optimal, biological activity
shelf-life [2]: somewhat extended but still rather limited shelf-life

SMILES: CSCC[C@@H]1NC(=O)[C@H](CCC(=O)O)NC(=O)[C@H](CCC(N)=O)NC(=O)CNC(=O)[C@@H]2C[C@@H](O)CN2C(=O)[C@H](CC(N)=O)NC(=O)[C@H](C(C)C)NC(=O)[C@@H]2C[C@@H](O)CN2C(=O)[C@H]([C@@H](C)O)NC1=O [Cyclo-(SEQ ID NO:5: EMTOVNOGQ), Cyclo-(EMTOVNOGQ)] (cyclo(EMT[Hyp]VN[Hyp]GQ))
anti-estrotrophic activity ([1]; at doses higher than 10 µg/mouse): retained significant anti-estrotrophic activity
dose of maximal inhibitory activity on estrogen-stimulated growth of immature mouse uterus [1]: 10 µg per mouse
estrogen-dependent growth of MCF-7 human breast cancer xenografts (tumor volume vs E2 alone) ([3]; peptide 1 µg per mouse i.p. twice a day, SCID mice): significantly inhibited
shelf-life [2]: Indefinite shelflife; also recorded: indefinite shelf-life

biological half-life [4]: two to three
SMILES: CSCC[C@H](NC(=O)[C@@H](N)CCC(=O)O)C(=O)N[C@H](C(=O)N1C[C@H](O)C[C@H]1C(=O)N[C@H](C(=O)N[C@@H](CC(N)=O)C(=O)N1C[C@H](O)C[C@H]1C(=O)NCC(N)=O)C(C)C)[C@@H](C)O [SEQ ID NO:4: EMTOVNOG, EMTOVNOG] (H-EMT[Hyp]VN[Hyp]G-NH2)

SMILES: O=C(c1ccc(OCCN2CCCCC2)cc1)c1c(-c2ccc(O)cc2)sc2cc(O)ccc12 [raloxifene]
inhibition of estradiol binding to its receptor (estrogen receptor): completely inhibited

SMILES: CC/C(=C(\c1ccccc1)c1ccc(OCCN(C)C)cc1)c1ccccc1 [tamoxifen]
growth of tamoxifen-resistant MCF-7 subline xenografts (tumor volume vs E2 alone) [5]: resistant to tamoxifen in vivo; also recorded: only minimally effective
estrogen-dependent growth of MCF-7 human breast cancer xenografts (tumor volume vs E2 alone) ([3]; tamoxifen 50 µg per mouse i.p. once a day): prevented growth; also recorded: no increase in tumor volume
estrogen-dependent growth of MCF-7 human breast cancer xenografts (tumor volume vs E2 alone) ([3]; tamoxifen 50 µg per mouse i.p. once a day, listed as Tamoxifen): significantly different
MCF-7 breast cancer xenograft growth [6]: stop MCF-7 breast cancer xenograft growth
growth of ER+ T47D human breast cancer xenografts [7]: prevented growth
growth of ER- MDA-MB-231 human breast cancer xenografts [8]: Neither peptide nor tamoxifen were effective; also recorded: did not affect the growth
